# Results as given in patent US12304890B2, “R-type pyridyloxycarboxylic acid, salt and ester derivative thereof, and preparation method therefor, and herbicidal composition and application thereof” (Qingdao Kingagroot Chemical Compound Co., Ltd., priority 2018, dated 2025).
# Key:
# Assay type in all cases: in vivo
# Echinochloa crusgalli = test: Post-emergence test experiment, Echinochloa crusgalli; conditions: 1000 g a.i./ha, 3 weeks in greenhouse, fresh weight inhibition
# In short: (§1)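 Weed and crop seeds were sown in soil-filled pots, covered with 0.5-2 cm soil and grown in a greenhouse. Plants were sprayed at the 2-3 leaf stage, 2 weeks after sowing. Compounds were in acetone with tween-80 plus methyl oleate emulsible concentrate synergist (1.5 liters per hectare). Fresh weight inhibition was scored after 3 weeks.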
# Digitaria sanguinalis = test: Post-emergence test experiment, Digitaria sanguinalis; conditions: 1000 g a.i./ha, 3 weeks in greenhouse, fresh weight inhibition
# In short: as §1
# [1] = system: Monocotyledonous and dicotyledonous weed seeds and main crop seeds; test: Post-emergence test experiment, other weeds and crops (Table 4, 1000 g a.i./ha); conditions: 3 weeks in greenhouse, fresh weight inhibition
# In short: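 Weed and crop seeds (wheat, corn, rice, soybean, cotton, oilseed, millet, sorghum) sown in soil pots in a greenhouse and sprayed at 2-3 leaf stage, 2 weeks after sowing. Compound in acetone/tween-80 with methyl oleate concentrate (1.5 L/ha) as synergist. Effect recorded as fresh-weight growth inhibition rate.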
Compound,"Activity level (growth inhibition rate), Echinochloa crusgalli (Echinochloa crusgalli)","Activity level (growth inhibition rate), Digitaria sanguinalis (Digitaria sanguinalis)","Activity level (growth inhibition rate), Abutilon theophrasti Medic. [1]","Activity level (growth inhibition rate), Galium aparine [1]","Activity level (growth inhibition rate), Monochoria Vaginalis [1]"
CCCCCCCCCCCCSC(=O)[C@@H](C)Oc1nc(F)c(Cl)c(N)c1Cl [Compound 2-236],5 (Level 5: the growth inhibition rate is greater than 85%),5 (Level 5: the growth inhibition rate is greater than 85%),5 (Level 5: the growth inhibition rate is greater than 85%),5 (Level 5: the growth inhibition rate is greater than 85%),5 (Level 5: the growth inhibition rate is greater than 85%)
CC(Oc1nc(F)c(Cl)c(N)c1Cl)C(=O)OC1CC1 (stereo not shown) [Compound 2-263],5 (Level 5: the growth inhibition rate is greater than 85%),5 (Level 5: the growth inhibition rate is greater than 85%),5 (Level 5: the growth inhibition rate is greater than 85%),5 (Level 5: the growth inhibition rate is greater than 85%),5 (Level 5: the growth inhibition rate is greater than 85%)
CC(Oc1nc(F)c(Cl)c(N)c1Cl)C(=O)OC1CCC1 (stereo not shown) [Compound 2-264],5 (Level 5: the growth inhibition rate is greater than 85%),5 (Level 5: the growth inhibition rate is greater than 85%),5 (Level 5: the growth inhibition rate is greater than 85%),5 (Level 5: the growth inhibition rate is greater than 85%),5 (Level 5: the growth inhibition rate is greater than 85%)
CC(Oc1nc(F)c(Cl)c(N)c1Cl)C(=O)OC1CCCC1 (stereo not shown) [Compound 2-265],5 (Level 5: the growth inhibition rate is greater than 85%),5 (Level 5: the growth inhibition rate is greater than 85%),5 (Level 5: the growth inhibition rate is greater than 85%),5 (Level 5: the growth inhibition rate is greater than 85%),5 (Level 5: the growth inhibition rate is greater than 85%)
CC(Oc1nc(F)c(Cl)c(N)c1Cl)C(=O)SC1CCCCC1 (stereo not shown) [Compound 2-266],5 (Level 5: the growth inhibition rate is greater than 85%),5 (Level 5: the growth inhibition rate is greater than 85%),5 (Level 5: the growth inhibition rate is greater than 85%),5 (Level 5: the growth inhibition rate is greater than 85%),5 (Level 5: the growth inhibition rate is greater than 85%)
CC(Oc1nc(F)c(Cl)c(N)c1Cl)C(=O)OCC#N (stereo not shown) [Compound 2-267],5 (Level 5: the growth inhibition rate is greater than 85%),5 (Level 5: the growth inhibition rate is greater than 85%),5 (Level 5: the growth inhibition rate is greater than 85%),5 (Level 5: the growth inhibition rate is greater than 85%),5 (Level 5: the growth inhibition rate is greater than 85%)
CC(Oc1nc(F)c(Cl)c(N)c1Cl)C(=O)OC[N+](=O)[O-] (stereo not shown) [Compound 2-268],5 (Level 5: the growth inhibition rate is greater than 85%),5 (Level 5: the growth inhibition rate is greater than 85%),5 (Level 5: the growth inhibition rate is greater than 85%),5 (Level 5: the growth inhibition rate is greater than 85%),5 (Level 5: the growth inhibition rate is greater than 85%)
COCCOC(=O)C(C)Oc1nc(C)c(Cl)c(N)c1Cl (stereo not shown) [Compound 2-270],5 (Level 5: the growth inhibition rate is greater than 85%),5 (Level 5: the growth inhibition rate is greater than 85%),5 (Level 5: the growth inhibition rate is greater than 85%),5 (Level 5: the growth inhibition rate is greater than 85%),5 (Level 5: the growth inhibition rate is greater than 85%)
COCCCSC(=O)C(C)Oc1nc(F)c(Cl)c(N)c1Cl (stereo not shown) [Compound 2-272],5 (Level 5: the growth inhibition rate is greater than 85%),5 (Level 5: the growth inhibition rate is greater than 85%),5 (Level 5: the growth inhibition rate is greater than 85%),5 (Level 5: the growth inhibition rate is greater than 85%),5 (Level 5: the growth inhibition rate is greater than 85%)
C=CCOC(=O)C(C)Oc1nc(F)c(Cl)c(N)c1Cl (stereo not shown) [Compound 2-273],5 (Level 5: the growth inhibition rate is greater than 85%),5 (Level 5: the growth inhibition rate is greater than 85%),5 (Level 5: the growth inhibition rate is greater than 85%),5 (Level 5: the growth inhibition rate is greater than 85%),5 (Level 5: the growth inhibition rate is greater than 85%)
C#CCSC(=O)C(C)Oc1nc(F)c(Cl)c(N)c1Cl (stereo not shown) [Compound 2-274],5 (Level 5: the growth inhibition rate is greater than 85%),5 (Level 5: the growth inhibition rate is greater than 85%),5 (Level 5: the growth inhibition rate is greater than 85%),5 (Level 5: the growth inhibition rate is greater than 85%),5 (Level 5: the growth inhibition rate is greater than 85%)
C#CCOC(=O)C(C)Oc1nc(F)c(Cl)c(N)c1Cl (stereo not shown) [Compound 2-275],5 (Level 5: the growth inhibition rate is greater than 85%),5 (Level 5: the growth inhibition rate is greater than 85%),5 (Level 5: the growth inhibition rate is greater than 85%),5 (Level 5: the growth inhibition rate is greater than 85%),5 (Level 5: the growth inhibition rate is greater than 85%)
C[C@@H](Oc1nc(F)c(Cl)c(N)c1Cl)C(=O)OCCF [Compound 2-276],5 (Level 5: the growth inhibition rate is greater than 85%),5 (Level 5: the growth inhibition rate is greater than 85%),5 (Level 5: the growth inhibition rate is greater than 85%),5 (Level 5: the growth inhibition rate is greater than 85%),5 (Level 5: the growth inhibition rate is greater than 85%)
C[C@@H](Oc1nc(F)c(Cl)c(N)c1Cl)C(=O)OCCCl [Compound 2-277],5 (Level 5: the growth inhibition rate is greater than 85%),5 (Level 5: the growth inhibition rate is greater than 85%),5 (Level 5: the growth inhibition rate is greater than 85%),5 (Level 5: the growth inhibition rate is greater than 85%),5 (Level 5: the growth inhibition rate is greater than 85%)
C[C@@H](Oc1nc(F)c(Cl)c(N)c1Cl)C(=O)OCCBr [Compound 2-278],5 (Level 5: the growth inhibition rate is greater than 85%),5 (Level 5: the growth inhibition rate is greater than 85%),5 (Level 5: the growth inhibition rate is greater than 85%),5 (Level 5: the growth inhibition rate is greater than 85%),5 (Level 5: the growth inhibition rate is greater than 85%)
C[C@@H](Oc1nc(F)c(Cl)c(N)c1Cl)C(=O)OCC(F)F [Compound 2-279],5 (Level 5: the growth inhibition rate is greater than 85%),5 (Level 5: the growth inhibition rate is greater than 85%),5 (Level 5: the growth inhibition rate is greater than 85%),5 (Level 5: the growth inhibition rate is greater than 85%),5 (Level 5: the growth inhibition rate is greater than 85%)
C[C@@H](Oc1nc(F)c(Cl)c(N)c1Cl)C(=O)OCC(F)(F)F [Compound 2-281],5 (Level 5: the growth inhibition rate is greater than 85%),5 (Level 5: the growth inhibition rate is greater than 85%),5 (Level 5: the growth inhibition rate is greater than 85%),5 (Level 5: the growth inhibition rate is greater than 85%),5 (Level 5: the growth inhibition rate is greater than 85%)
